Measured values as given in patent US9877981B2, “NAD biosynthesis and precursors for the treatment and prevention of cancer and proliferation” (President and Fellows of Harvard College, priority 2012, dated 2018).
Entries after “also recorded” stand apart in the source; their conditions may differ.

How the values were obtained:
HIF-1α = test: Immunoblot for HIF-1α in gastrocnemius of treated mice; format: in vivo
Experimental: (§1) C57BL/6J mice of 3, 6, 22, 24, or 30 months of age were obtained from the National Institutes of Aging mouse aging colony. Mice were acclimated for at least one-week prior to sacrifice. 3, and 24-month-old mice were given interperitoneal (IP) injections of 500 mg NMN/kg body weight per day or the equivalent volume of PBS for 7 consecutive days at 5:00 pm and 7:00 am on day 8 and sacrificed 4 hr after last injection. All animal studies followed the guidelines of and were approved by the Harvard Institutional Animal Care and Use Committee
(§2) C57BL/6J mice of 6, 22, or 30 months of age were obtained from the National Institutes of Aging mouse aging colony. Additionally 22 months old caloric restricted mice were also obtained from the National Institutes of Aging mouse aging colony. EGLN1 KO, SIRT1 KO and SIRT1 OE mice were generated as previously described (Minamishima et al., 2008; Price et al., 2012). Mice were acclimated for at least one-week prior to sacrifice. […]
(§3) Protein extracts from tissue or C2C12 cells were obtained by lysis in ice-cold lysis buffer (150 mM NaCl, 10 mM Tris HCl (pH 7.4), 1 mM EDTA, 1 mM EGTA, 1% Triton X-100, 0.5% NP-40) supplemented with a cocktail of protease and phosphatase inhibitors (Roche). Protein content was determined by the Bradford protein assay (Biorad), and 50 μg proteins were run on SDS-PAGE under reducing conditions. […] The immunostaining was detected using horseradish peroxidase-conjugated anti-rabbit or anti-mouse immunoglobulin for 1 h at room temperature.
as §3, with “tissue” for “tissue or C2C12 cells”

VHL = test: Immunoblot for VHL in gastrocnemius of treated mice; format: in vivo; conditions: 6- and 22-month-old mice, NMN one week
Text: (§4) C57BL/6J mice of 6, 22, or 30 months of age were obtained from the National Institutes of Aging mouse aging colony. Additionally 22 months old caloric restricted mice were also obtained from the National Institutes of Aging mouse aging colony. EGLN1 KO, SIRT1 KO and SIRT1 OE mice were generated as previously described (Minamishima et al., 2008; Price et al., 2012). Mice were acclimated for at least one-week prior to sacrifice. 3, 6, 22 and 24-month-old mice were given interperitoneal (IP) injections of 500 mg NMN/kg body weight per day or the equivalent volume of PBS for 7 consecutive days at 5:00 pm and 7:00 am on day 8 and sacrificed 4 hr after last injection.
C57BL/6J mice of 3, 6, 22, or 24 months of age were obtained from the National Institutes of Aging mouse aging colony. […]
as §3, with “tissue” for “tissue or C2C12 cells”

[1] = tested on: HIF-1α target genes (PGK-1, Glut1, PDK1 and Vegfa); test: qPCR of HIF-1α target genes in gastrocnemius of treated mice; format: in vivo; conditions: 3- and 24-month-old mice, NMN 500 mg/kg IP one week
Experimental: as §1
(§5) RNA from skeletal muscle tissue and C2C12 cells were extracted with RNeasy mini kit (Qiagen) according to the instructions and quantified using the NanoDrop 1000 spectrophotometer (Thermo Scientific). cDNA was synthesized with the iSCRIP cDNA synthesis kit (BioRad) using 600 ng of RNA. Quantitative RT-PCR reactions were performed using 1 μM of primers and LightCycler® 480 SYBR Green Master (Roche) on an LightCycler® 480 detection system (Roche). Calculations were performed by a comparative method (2-ΔCT) using 18S as an internal control. […]
RNA from skeletal muscle and aorta were extracted with RNeasy mini kit (Qiagen) according to the instructions and quantified using the NanoDrop 1000 spectrophotometer (Thermo Scientific). cDNA was synthesized with the iSCRIP cDNA synthesis kit (BioRad) using 600 ng of RNA. […]

[2] = tested on: inflammatory markers (TNF-α, IL-6 and IL-18); test: qPCR of inflammatory markers in gastrocnemius of treated mice; format: in vivo; conditions: old (22-month) mice; NMN one week; skeletal muscle
Text: as §4, §5

NAD+ = NAD+ levels in skeletal muscle of mice treated with NMN; format: in vivo, C57BL/6J mice; conditions: young and old
Experimental: as §1
NAD^+ from C2C12 cells and skeletal muscle was quantified with a commercially available kit (BioVision) according to the manufacturer's instructions and as described before (Gomes et al., Biochim. Biophys. Acta. 1822:185-195 (2012)).
as §2
NAD^+ from skeletal muscle was quantified with a commercially available kit (BioVision) according to the manufacturer's instructions and as described before (Gomes et al., 2012). […]

[3] = tested on: AKT and IRS-1 phosphorylation; test: Insulin signaling immunoblot (p-AKT, p-IRS-1) in muscle of treated mice; format: in vivo; conditions: old mice treated with NMN; soleus
Text: as §4
as §3, with “conditions. The separated proteins were then electrophoretically transferred to a polyvinylidene difluoride membrane (Perkin-Elmer).” for “conditions.”

primary myoblasts = test: qPCR of mitochondrial-encoded genes in primary myoblasts infected with NMNAT1 or nontargeting shRNA; format: cell-based, mouse; conditions: primary myoblasts with knockdown of NMNAT1
TFAM promoter = TFAM promoter activity by luciferase assay in primary WT myoblasts; format: cell-based, mouse; conditions: DMOG vs DMSO
Experimental: TFAM promoter, VHL promoter, HRE and c-Myc activity were determined using a luciferase-based system. Luciferase activity was measured using the Dual-Luciferase Reporter Assay System (Promega) with Renilla as the reference.
TFAM promoter activity was evaluated using a TFAM promotes-luc plasmid. A fragment of the mouse Tfam promoter (1.4 kb upstream of the coding sequence) was cloned into a pGL4.15 vector (Promega). Luciferase activity was measured using the Dual-Luciferase Reporter Assay System (Promega) with Renilla as the reference 48 h after transfection.

SMILES | HIF-1α protein in muscle (HIF-1α; 3- and 24-month-old mice, NMN 500 mg/kg IP one week) | HIF-1α protein accumulation (HIF-1α; 6- and 22-month-old mice, NMN one week) | VHL protein (VHL) | expression of HIF-1α target genes [1] | expression of inflammation markers [2] | levels of cellular NAD+ (NAD+; 3- and 24-month-old C57BL/6J mice, NMN 500 mg/kg IP for one week, skeletal muscle) | levels of cellular NAD+ (NAD+; 6- and 22-month-old C57BL/6J mice, NMN for one week) | age-induced insulin resistance in the skeletal muscle [3] | phosphorylation of AKT and IRS-1 [3] | ability of NMN to induce expression of mitochondrial-encoded genes (primary myoblasts) | HIF-1α protein (HIF-1α; SIRT1-tg mice, DMOG 300 mg/kg IP per day, 5 days) | full length TFAM promoter activity (TFAM promoter) | TFAM promoter activity with c-Myc consensus sequence mutation (TFAM promoter; c-Myc binding site absent)
NC(=O)c1ccc[n+]([C@@H]2O[C@H](COP(=O)([O-])O)[C@@H](O)[C@H]2O)c1 [NMN, nicotinamide mononucleotide] | reversed the age-induced increase in HIF-1α in muscle | reversed; also recorded: reduced the level of HIF-1α in muscle | reversed the age-induced decline in VHL | suppressed the expression of HIF-1α target genes | completely reversed these markers | approximately 2 fold | 2 fold | reverse age-induced insulin resistance | increasing the phosphorylation | completely abolishes the ability of NMN to induce the expression of mitochondrial-encoded genes |  |  | 
COC(=O)CNC(=O)C(=O)OC [DMOG, dimethyloxaloylglycine] |  |  |  |  |  |  |  |  |  |  | increase HIF-1α | reduces the full length TFAM promoter activity | does not have an additive effect
